Data as given in patent publication US8519061B2, “Controlled release remediation system and composition” (North Carolina A&T State University, priority 2008, dated 2013).

System: E. coli
Experiment: E. coli colony counts, Membrane Filter Count Method, Country Park Lake water
Assay type: cell-based, Escherichia coli
Method: These pellets were used to evaluate the removal of Escherichia coli (commonly E. coli) from publicly accessible water. […] Recreational use of the publicly accessible water in this area is restricted due to high E. coli concentrations that can lead to illness.
Water samples including control water samples and publicly accessible water samples (from Country Park Lake) at concentrations of 1 ml, 0.1 ml, 0.01 ml, and 0.001 ml were prepared for evaluation.
The water samples were filtered through 5 μm filters and bacteria was cultured in petri dishes with m-Endo broth (e.g., commercially available form BD Diagnostic Systems Sparks, Md.) for 24-hours at 35° C. If E. coli was present in the filtered water sample, metallic purple/red E. coli colonies would grow on the filter in the petri dish. For this analysis, the larger the water sample filtered, the higher the concentration of E. coli which would grow within the 24-hour window. To analyze the amount of E. coli on the filter, the goal was to determine the appropriate water dilution amount to obtain filters where the number of colonies could be counted. If the filter was covered with E. coli, the petri dish was classified as “To numerous to count”. When an acceptable number of countable colonies was obtained, the number of colonies/100 ml was calculated for the water sample.

O=S(=O)([O-])OO.[K+] [Oxone ® compound, potassium hydrogen peroxymonosulfate sulfate (5:3:2:2)]
E. coli Colony Counts, 0.1 ml dilution plates: No colonies | E. coli Colony Counts, 1 ml dilution plates: No colonies | E. coli Colony Counts, Average 24 hours # colonies/100 ml: No colonies | Removal of E. coli from treated water: complete removal
